# Experimental data as given in ChEMBL document CHEMBL6087456 (J Med Chem, 2025).
# The source made the active and inactive calls. No cut-off for these calls is given here.
# Legend:
# [1] = test system: Plasmodium falciparum; experiment: Antiparasitic activity against Plasmodium falciparum 3D7 assessed as parasitic reduction ratio at 10 times EC50 pretreated for 120 hrs followed by compound removal and replacement of media without compound measured after 28 days by cell killing assay; assay type: functional
# [2] = biological target: Cytochrome P450 2C19 (Homo sapiens, UniProt P33261); experiment: Time-dependent inhibition of CYP2C19 in human liver microsomes; assay type: ADME, Microsome
# [3] = Toxicity in humanized SCID mouse model infected with erythrocyte asexual stage Plasmodium falciparum 3D7 0087/N9 assessed as drug tolerance at 1 to 30 mg/kg administered once daily for 6 days; assay type: organism-based; conditions: in vivo, dose 1-30 mg/kg, time 6 day
# [4] = Kinetic solubility of compound at pH 6.5 measured after 30 mins by nephelometry; assay type: physicochemical; conditions: buffer, pH 6.5, read-out: Kinetic_solubility
# [5] = Permeability across apical to basal side in human Caco-2 cells; assay type: ADME, cell-based
# [6] = biological target: Albumin (Homo sapiens, UniProt P02768); experiment: Protein binding to albumin (unknown origin) in ALBUMAX medium; assay type: ADME; conditions: read-out: PB (converted)
# [7] = Plasma protein binding in rat measured for 6 hrs by rapid equilibrium dialysis; assay type: ADME, cell-free
# [8] = test system: Plasmodium falciparum; experiment: Antiparasitic activity against asexual blood stage Plasmodium falciparum 3D7 incubated for 72 hrs by SYBR Green assay; assay type: functional, organism-based; conditions: 3D7, 72 h
# [9] = test system: Plasmodium falciparum; experiment: Prevention of terminal maturation of schizonts in humanized SCID mouse model infected with erythrocyte asexual stage Plasmodium falciparum 3D7 0087/N9 at 1 to 30 mg/kg administered once daily for 6 days; assay type: functional, organism-based; conditions: dose 1-30 mg/kg, time 6.0 day
# [10] = test system: Plasmodium falciparum; experiment: Prevention of pyknosis of rings in humanized SCID mouse model infected with erythrocyte asexual stage Plasmodium falciparum 3D7 0087/N9 at 1 to 30 mg/kg administered once daily for 6 days measured after 96 to […] post-dose; assay type: functional, organism-based; conditions: dose 1-30 mg/kg, time 6.0 day
# [11] = biological target: Dihydroorotate dehydrogenase (quinone), mitochondrial (Homo sapiens, UniProt Q02127); experiment: Inhibition of C-terminal His6-tagged recombinant human DHODH (29 to 395 residues) N-terminally truncated soluble domain extracted from Escherichia coli phage resistant BL21-DE3 using CoQD/DHA/DCIP as substrates
# [12] = biological target: Prostaglandin G/H synthase 1 (Homo sapiens) (UniProt P23219); experiment: Inhibition of COX1 (unknown origin) at 10 uM relative to control
# [13] = biological target: T1, Cytochrome P450 2D6 (Homo sapiens, UniProt P10635); experiment: Time-dependent inhibition of CYP2D6 in human liver microsomes; assay type: ADME, Microsome
# [14] = Drug excretion in Sprague-Dawley rat urine at 1 mg/kg, iv; assay type: ADME, organism-based; conditions: read-out: Drug excretion
# [15] = Oral bioavailability in overnight-fasted male Sprague-Dawley rat at 3 mg/kg measured upto 72 hrs by LCMS analysis; assay type: ADME, organism-based; conditions: in vivo
# [16] = biological target: Cytochrome P450 3A4 (Homo sapiens, UniProt P08684); experiment: Inhibition of CYP3A4 in human liver microsomes; assay type: ADME, Microsome
# [17] = Cytotoxicity against human HepG2 cells by Cell Titer Glo assay; assay type: toxicity, cell-based
# [18] = biological target: Cytochrome P450 3A5 (Homo sapiens, UniProt P20815); experiment: Time-dependent inhibition of CYP3A5 in human liver microsomes; assay type: ADME, Microsome
# [19] = test system: Plasmodium falciparum; experiment: Prevention of re-infection of new erythrocytes in humanized SCID mouse model infected with erythrocyte asexual stage Plasmodium falciparum 3D7 0087/N9 at 1 to 30 mg/kg administered once daily for 6 days; assay type: functional, organism-based; conditions: dose 1-30 mg/kg, time 6.0 day
# [20] = biological target: T2, Cytochrome P450 1A2 (Homo sapiens, UniProt P05177); experiment: Time-dependent inhibition of CYP1A2 in human liver microsomes; assay type: ADME, Microsome
# T2 sequence (P05177 whole entry): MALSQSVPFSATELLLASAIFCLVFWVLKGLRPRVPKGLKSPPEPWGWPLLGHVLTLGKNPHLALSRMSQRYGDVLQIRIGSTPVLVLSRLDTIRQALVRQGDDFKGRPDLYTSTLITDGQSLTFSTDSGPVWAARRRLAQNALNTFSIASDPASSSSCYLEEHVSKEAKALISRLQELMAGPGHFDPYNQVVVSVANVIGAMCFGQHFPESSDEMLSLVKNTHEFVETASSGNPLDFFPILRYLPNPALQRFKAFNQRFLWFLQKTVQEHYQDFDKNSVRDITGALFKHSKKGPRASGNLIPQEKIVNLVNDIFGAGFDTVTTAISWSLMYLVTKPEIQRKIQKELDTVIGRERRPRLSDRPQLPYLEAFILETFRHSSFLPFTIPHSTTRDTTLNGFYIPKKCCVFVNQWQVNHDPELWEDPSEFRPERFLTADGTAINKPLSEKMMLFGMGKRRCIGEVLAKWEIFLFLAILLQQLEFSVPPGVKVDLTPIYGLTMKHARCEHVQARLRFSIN
# [21] = Apparent half life in humanized SCID mouse model at 30 mg/kg, po; assay type: ADME, organism-based; conditions: in vivo, read-out: t1/2(app) (converted)
# [22] = test system: Plasmodium falciparum; experiment: Antiparasitic activity against Plasmodium falciparum 3D7 assessed as lag time before killing at 10 times EC50 pretreated for 120 hrs followed by compound removal and replacement of media without compound measured after 28 days by cell killing assay; assay type: functional
# [23] = biological target: T3, Cytochrome P450 2B6 (Homo sapiens, UniProt P20813); experiment: Inhibition of CYP2B6 in human liver microsomes; assay type: ADME, Microsome
# T3 sequence (P20813 whole entry): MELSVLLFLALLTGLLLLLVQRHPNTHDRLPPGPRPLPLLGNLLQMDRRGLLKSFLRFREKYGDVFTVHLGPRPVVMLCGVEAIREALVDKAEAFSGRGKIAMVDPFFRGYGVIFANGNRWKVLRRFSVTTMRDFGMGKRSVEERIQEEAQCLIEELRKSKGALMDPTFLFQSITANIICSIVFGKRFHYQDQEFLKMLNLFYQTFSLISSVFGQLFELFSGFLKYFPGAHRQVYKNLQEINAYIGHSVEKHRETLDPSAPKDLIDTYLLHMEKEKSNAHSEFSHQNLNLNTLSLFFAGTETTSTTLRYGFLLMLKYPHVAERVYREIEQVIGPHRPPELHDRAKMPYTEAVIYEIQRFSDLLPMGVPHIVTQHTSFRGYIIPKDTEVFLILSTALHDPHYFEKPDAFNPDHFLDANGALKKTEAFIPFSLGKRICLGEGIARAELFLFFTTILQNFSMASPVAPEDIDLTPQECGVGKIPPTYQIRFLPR
# [24] = biological target: T1, Cytochrome P450 2D6; experiment: Inhibition of CYP2D6 in human liver microsomes; assay type: ADME, Microsome
# [25] = test system: Plasmodium falciparum; experiment: Antimalarial activity against erythrocyte asexual stage Plasmodium falciparum 3D7 0087/N9 infected in humanized SCID mouse model assessed as elimination of trophozoites at second life cycle at 1 to 30 mg/kg administered once daily measured for 48 to 96 hrs; assay type: functional, organism-based; conditions: dose 1-30 mg/kg, time lower […], time upper […]
# [26] = biological target: Cytochrome P450 2C9 (Homo sapiens, UniProt P11712); experiment: Time-dependent inhibition of CYP2C9 in human liver microsomes; assay type: ADME, Microsome
# [27] = test system: Plasmodium falciparum; experiment: Antimalarial activity against erythrocyte asexual stage Plasmodium falciparum 3D7 0087/N9 infected in humanized SCID mouse model assessed as inhibition of maturation of trophozoites to schizonts at first life cycle at 1 to 30 mg/kg administered once daily measured after 48 hrs; assay type: functional, organism-based; conditions: dose 1-30 mg/kg
# T1 sequence (P10635 whole entry): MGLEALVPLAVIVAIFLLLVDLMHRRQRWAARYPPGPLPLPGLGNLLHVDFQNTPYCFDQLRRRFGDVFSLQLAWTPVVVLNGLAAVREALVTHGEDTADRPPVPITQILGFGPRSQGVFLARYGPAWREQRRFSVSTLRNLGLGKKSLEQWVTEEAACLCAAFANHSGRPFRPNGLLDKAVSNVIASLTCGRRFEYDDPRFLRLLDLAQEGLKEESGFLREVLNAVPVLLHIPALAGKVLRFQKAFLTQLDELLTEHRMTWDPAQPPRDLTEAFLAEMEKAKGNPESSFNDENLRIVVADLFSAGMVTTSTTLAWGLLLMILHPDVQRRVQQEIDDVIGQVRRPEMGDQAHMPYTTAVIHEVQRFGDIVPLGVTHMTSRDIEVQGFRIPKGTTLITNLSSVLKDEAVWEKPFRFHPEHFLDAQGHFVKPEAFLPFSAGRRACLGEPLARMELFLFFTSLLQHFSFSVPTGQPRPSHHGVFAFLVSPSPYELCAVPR
# Chain of Cytochrome P450 2C19 (P33261 whole entry): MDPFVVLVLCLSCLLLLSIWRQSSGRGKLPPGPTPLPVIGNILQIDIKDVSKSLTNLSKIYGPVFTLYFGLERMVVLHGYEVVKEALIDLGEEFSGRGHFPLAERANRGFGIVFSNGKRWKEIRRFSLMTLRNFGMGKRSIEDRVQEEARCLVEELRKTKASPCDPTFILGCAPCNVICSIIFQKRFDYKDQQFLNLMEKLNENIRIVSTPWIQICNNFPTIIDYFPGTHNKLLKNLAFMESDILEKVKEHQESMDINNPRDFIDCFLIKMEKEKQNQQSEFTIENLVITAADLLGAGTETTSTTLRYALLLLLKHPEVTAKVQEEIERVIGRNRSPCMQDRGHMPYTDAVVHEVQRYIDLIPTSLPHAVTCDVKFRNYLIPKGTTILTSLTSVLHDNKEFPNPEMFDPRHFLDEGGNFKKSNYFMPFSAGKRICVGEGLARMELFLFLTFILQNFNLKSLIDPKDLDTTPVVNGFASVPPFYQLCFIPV
# Chain of Cytochrome P450 2C9 (P11712 whole entry): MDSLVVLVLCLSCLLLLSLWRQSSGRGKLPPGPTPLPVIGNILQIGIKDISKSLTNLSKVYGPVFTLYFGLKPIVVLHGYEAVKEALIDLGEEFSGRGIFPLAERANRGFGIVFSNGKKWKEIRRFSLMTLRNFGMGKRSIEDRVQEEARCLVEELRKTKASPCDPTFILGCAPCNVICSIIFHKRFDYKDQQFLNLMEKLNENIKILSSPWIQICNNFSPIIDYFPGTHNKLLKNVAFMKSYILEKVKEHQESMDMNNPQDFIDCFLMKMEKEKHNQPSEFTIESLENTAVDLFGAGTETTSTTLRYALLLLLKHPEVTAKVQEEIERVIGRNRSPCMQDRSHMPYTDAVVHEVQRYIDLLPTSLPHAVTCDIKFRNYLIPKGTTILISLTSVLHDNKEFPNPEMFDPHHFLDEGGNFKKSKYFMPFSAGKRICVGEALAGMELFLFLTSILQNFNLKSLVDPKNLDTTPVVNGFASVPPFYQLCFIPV
# Chain of Cytochrome P450 3A5 (P20815 whole entry): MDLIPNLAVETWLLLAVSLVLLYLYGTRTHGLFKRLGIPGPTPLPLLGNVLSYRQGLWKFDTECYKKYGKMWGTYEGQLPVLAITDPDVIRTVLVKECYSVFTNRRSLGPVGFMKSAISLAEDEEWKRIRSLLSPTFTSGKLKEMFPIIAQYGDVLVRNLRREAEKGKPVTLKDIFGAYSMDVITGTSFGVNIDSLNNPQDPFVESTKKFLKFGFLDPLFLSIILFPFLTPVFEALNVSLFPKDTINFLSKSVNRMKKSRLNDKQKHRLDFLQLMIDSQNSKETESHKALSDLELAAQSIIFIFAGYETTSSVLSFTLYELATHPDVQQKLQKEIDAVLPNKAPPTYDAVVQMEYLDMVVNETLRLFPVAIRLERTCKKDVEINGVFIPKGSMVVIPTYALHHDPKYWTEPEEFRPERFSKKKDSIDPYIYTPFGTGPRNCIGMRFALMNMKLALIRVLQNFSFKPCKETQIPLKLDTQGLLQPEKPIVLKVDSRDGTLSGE
# Chain of Albumin (P02768 whole entry): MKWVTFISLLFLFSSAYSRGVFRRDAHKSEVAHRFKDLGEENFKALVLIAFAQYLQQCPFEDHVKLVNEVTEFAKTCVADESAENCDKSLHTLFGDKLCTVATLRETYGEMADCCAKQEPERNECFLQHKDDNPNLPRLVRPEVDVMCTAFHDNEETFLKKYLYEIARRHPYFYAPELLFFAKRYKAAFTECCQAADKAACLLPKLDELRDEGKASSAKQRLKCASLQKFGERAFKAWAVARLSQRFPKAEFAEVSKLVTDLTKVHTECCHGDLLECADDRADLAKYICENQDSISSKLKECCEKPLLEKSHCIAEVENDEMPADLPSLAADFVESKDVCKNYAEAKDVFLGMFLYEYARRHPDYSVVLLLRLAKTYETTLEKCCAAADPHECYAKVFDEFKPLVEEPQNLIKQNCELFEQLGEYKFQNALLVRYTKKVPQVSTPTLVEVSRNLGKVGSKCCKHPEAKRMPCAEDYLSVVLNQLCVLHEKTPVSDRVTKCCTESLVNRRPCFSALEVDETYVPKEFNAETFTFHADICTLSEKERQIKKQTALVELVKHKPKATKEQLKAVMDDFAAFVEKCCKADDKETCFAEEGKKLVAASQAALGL
# Chain of Dihydroorotate dehydrogenase (quinone), mitochondrial (Q02127 whole entry, the tested form may be a part): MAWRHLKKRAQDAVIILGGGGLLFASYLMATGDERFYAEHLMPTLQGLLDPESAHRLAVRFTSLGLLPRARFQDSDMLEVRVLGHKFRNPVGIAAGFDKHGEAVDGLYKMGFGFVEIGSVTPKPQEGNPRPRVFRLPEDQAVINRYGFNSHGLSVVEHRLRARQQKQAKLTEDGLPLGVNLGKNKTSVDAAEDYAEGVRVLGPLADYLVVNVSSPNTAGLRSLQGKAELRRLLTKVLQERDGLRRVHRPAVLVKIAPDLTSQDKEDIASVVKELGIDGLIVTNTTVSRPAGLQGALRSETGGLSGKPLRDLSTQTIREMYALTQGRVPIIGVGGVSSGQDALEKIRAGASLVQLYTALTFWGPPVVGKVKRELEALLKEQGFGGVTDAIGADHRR
# Chain of Cytochrome P450 3A4 (P08684 whole entry): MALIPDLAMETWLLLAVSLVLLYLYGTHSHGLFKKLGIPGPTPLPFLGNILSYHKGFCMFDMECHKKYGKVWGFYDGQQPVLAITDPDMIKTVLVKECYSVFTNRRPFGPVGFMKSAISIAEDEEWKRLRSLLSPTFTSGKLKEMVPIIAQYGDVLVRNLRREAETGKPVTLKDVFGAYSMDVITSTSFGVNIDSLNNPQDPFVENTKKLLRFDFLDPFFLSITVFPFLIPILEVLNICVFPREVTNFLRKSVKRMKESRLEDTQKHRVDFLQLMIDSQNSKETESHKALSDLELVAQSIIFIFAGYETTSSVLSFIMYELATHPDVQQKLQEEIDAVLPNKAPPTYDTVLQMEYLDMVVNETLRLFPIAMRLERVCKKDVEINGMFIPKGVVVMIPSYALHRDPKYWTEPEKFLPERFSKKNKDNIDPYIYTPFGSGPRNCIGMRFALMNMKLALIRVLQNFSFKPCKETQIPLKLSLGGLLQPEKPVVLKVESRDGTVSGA
# Chain of Prostaglandin G/H synthase 1 (Homo sapiens) (P23219 whole entry): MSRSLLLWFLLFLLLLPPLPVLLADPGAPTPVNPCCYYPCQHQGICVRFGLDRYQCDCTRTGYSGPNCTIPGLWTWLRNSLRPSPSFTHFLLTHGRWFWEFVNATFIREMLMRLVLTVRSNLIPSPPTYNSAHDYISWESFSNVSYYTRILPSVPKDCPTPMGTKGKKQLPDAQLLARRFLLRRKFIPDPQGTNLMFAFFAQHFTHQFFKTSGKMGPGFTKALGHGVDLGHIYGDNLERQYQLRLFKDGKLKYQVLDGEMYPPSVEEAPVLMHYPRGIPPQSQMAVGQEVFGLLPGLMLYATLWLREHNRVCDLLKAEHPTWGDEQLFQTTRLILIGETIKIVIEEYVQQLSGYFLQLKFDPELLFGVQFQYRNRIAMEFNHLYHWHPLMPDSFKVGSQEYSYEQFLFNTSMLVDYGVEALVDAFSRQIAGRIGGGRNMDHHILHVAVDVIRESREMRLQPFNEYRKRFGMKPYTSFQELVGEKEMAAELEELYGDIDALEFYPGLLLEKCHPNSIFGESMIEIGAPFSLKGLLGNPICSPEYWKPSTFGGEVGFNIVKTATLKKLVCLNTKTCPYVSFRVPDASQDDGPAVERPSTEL
compound,measurement,setting,value
Cn1nc2c(=O)n(C3CC3)cnc2c1[C@](O)(c1cnc(C(F)(F)F)c(Cl)c1)C(F)(F)F,log(activity),[1],2.9
same,TDI,[2],Not_active
same,Activity,[3],Non-toxic
same,solubility kinetic at 0.5 h,[4],80 µM
same,permeability,[5],Permeable
same,fraction unbound,[6],0.514
same,PPB,[7],97.2%
same,EC50,[8],0.001 µM
same,Activity,[9],inactive
same,Activity,[10],inactive
same,IC50,[11],> 30 µM
same,inhibition,[12],50%
same,TDI,[13],Not_active
same,dose excreted,[14],< 1%
same,F,[15],> 89%
same,IC50,[16],> 20 µM
same,CC50,[17],> 20 µM
same,TDI,[18],Not_active
same,Activity,[19],inactive
same,TDI,[20],Not_active
same,half-life,[21],7.8 h
same,Time,[22],~26 h
same,IC50,[23],> 20 µM
same,IC50,[24],> 20 µM
same,Activity,[25],Active
same,TDI,[26],Not_active
same,Activity,[27],Active
